Experimental data: paper PMC3830930 (Clinical pharmacology and therapeutics, 2011)
Where two headings read alike, the source gives them in different places. Marks after values point to notes of the source that are not given here.

Columns and labels:
CYP3A4/5 [1] = settings: for AUC1’-OH/AUC4-OH ratio: range over the three CYP3A5 genotype groups
[2] = molecular target: recombinant CYP3A4 (rCYP3A4) (Homo sapiens, UniProt P08684)
[3] = test system: UDP-glucuronosyltransferases (UGTs) in pooled HLMs; test: Glucuronidation of hydroxymidazolams in HLMs; format: in vitro ADME, human
CYP3A4/5 [4] = test: clinical; settings: human, in vivo
[5] = cited from earlier work
plasma protein = settings: cited from earlier work

recombinant CYP3A4 (rCYP3A4), sequence (P08684 2-503 limits assumed): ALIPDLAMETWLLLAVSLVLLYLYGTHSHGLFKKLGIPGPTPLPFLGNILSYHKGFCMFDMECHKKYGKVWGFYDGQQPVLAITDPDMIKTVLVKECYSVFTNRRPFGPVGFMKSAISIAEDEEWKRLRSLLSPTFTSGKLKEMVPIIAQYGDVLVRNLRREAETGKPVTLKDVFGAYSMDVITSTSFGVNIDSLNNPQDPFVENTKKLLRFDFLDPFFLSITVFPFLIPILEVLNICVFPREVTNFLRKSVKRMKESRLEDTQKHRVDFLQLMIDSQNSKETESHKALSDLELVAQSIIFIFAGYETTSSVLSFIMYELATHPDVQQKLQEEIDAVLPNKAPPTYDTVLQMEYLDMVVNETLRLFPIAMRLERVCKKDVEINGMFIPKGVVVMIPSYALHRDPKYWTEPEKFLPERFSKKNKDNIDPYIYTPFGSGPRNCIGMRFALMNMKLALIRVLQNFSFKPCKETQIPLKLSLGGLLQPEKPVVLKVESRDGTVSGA

## OCc1ncc2n1-c1ccc(Cl)cc1C(c1ccccc1F)=NC2 [1’-hydroxymidazolam]
CYP3A4/5 [1]; control state
  AUC1’-OH/AUC4-OH ratio: 6.3–9.6
CYP3A4/5 [1]; extrapolation to infinity, mean ± S.D.
  percent of extrapolated AUC: 18.4 ± 10.6%
CYP3A4/5 [1]; with fluconazole
  AUC1’-OH/AUC4-OH ratio: 2.9–4.9
[2]
  Ki of 1’-OH-MDZ formation (substrate inhibition): 1480 ± 615 ^a µM

## hecogenin
[3]
  effect on glucuronide formation from 1’-OH-MDZ or 4-OH-MDZ: decreased glucuronide formation significantly

## Cc1ncc2n1-c1ccc(Cl)cc1C(c1ccccc1F)=NC2O (centres unmarked) [4-hydroxymidazolam]
CYP3A4/5 [1]; human, in vivo
  percent of extrapolated AUC: 19.0 ± 8.3%
CYP3A4/5 [4]; iv, 1 mg, AUC4-OH
  AUC: 0.0022 ± 0.0006 µM·h

## Cc1ncc2n1-c1ccc(Cl)cc1C(c1ccccc1F)=NC2 [midazolam, reference compound]
CYP3A4/5 [1]; human, in vivo
  percent of extrapolated AUC: 13.0 ± 9.5%
CYP3A4/5 [4]; AUCMDZ
  AUC: 0.227 µM·h
CYP3A4/5 [4]; iv, 1 mg, AUCMDZ
  AUC: 0.16 ± 0.035 µM·h

## OC(Cn1cncn1)(Cn1cncn1)c1ccc(F)cc1F [fluconazole]
[3]; pooled HLMs, substrate 1 µM, even at 300 µM fluconazole
  effect on the glucuronidation of either hydroxymidazolam metabolite: no effect
[5]
  elimination t1/2: ~ 32 hrs
[2]; human, pH 7.4
  IC50 for 1’-OH-MDZ lower than that for 4-OH-MDZ: 50%
Plasma protein
  plasma protein binding: 11–12%
